Test results: PMC4778904, “The Curcumin Analog C-150, Influencing NF-κB, UPR and Akt/Notch Pathways Has Potent Anticancer Activity In Vitro and In Vivo” (PLoS ONE, 2016)

Target: T1, PKC-alpha (Homo sapiens, UniProt P17252)
T1 construct: gene PRKCA
Experiment: IMAP-FP kinase activity assay (Proteros selectivity panel), single concentration […], ATP at Km app; […] inhibition
Assay type: biochemical

inhibition at 1 µM: 32.8%
Compound: C=CC(=O)NC(c1ccccc1)C(C(=O)/C=C/c1cccc(O)c1)C(=O)/C=C/c1cccc(O)c1 (stereo not shown) [compound 3, N-((E)-5-(3-hydroxyphenyl)-2-((E)-3-(3-hydroxyphenyl)acryloyl)-3-oxo-1-phenylpent-4-en-1-yl)acrylamide]
